US20240287089A1, “Preparation and Uses of 7-Azaindenoisoquinolines” (Purdue Research Foundation, priority 0001, published 2024)
Like-named read-outs stand apart in the source and are kept apart here.

Experiments:
Caco-2 cells = experiment: Caco-2 permeability; format: in vitro ADME; conditions: for Papp (A→B) / Papp (B→A): Caco-2, 5 μM, 2 h
Procedure: Caco-2 Permeability Studies. The Caco-2 plate was removed from the incubator and washed twice with pre-warmed HBSS (10 mM HEPES, pH 7.4), and then incubated at 37° C. for 30 min. The stock solutions of controls compounds were diluted in DMSO to get 1 mM solutions and then diluted with HBSS (10 mM HEPES, pH 7.4) to get 5 μM working solutions. The stock solutions of the test compounds were diluted in DMSO to get 1 mM solutions and then diluted with HBSS (10 mM HEPES, pH 7.4) to get 5 μM working solutions. The final concentration of DMSO in the incubation system was 0.5%. To determine the rate of drug transport in the apical to basolateral direction, 75 μL of 5 μM working solutions of test compounds was added to the Transwell insert (apical compartment) and the wells in the receiver plate (basolateral compartment) were filled with 235 μL of HBSS (10 mM HEPES, pH 7.4). To determine the rate of drug transport in the basolateral to apical direction, 235 μL of 5 μM working solutions of test compounds were to the receiver plate wells (basolateral compartment) and then the Transwell inserts (apical compartment) were filled with 75 μL of HBSS (10 mM HEPES, pH 7.4). Time 0 samples were prepared by transferring 50 μL of 5 μM working solution to wells of the 96-deepwell plate, followed by the addition of 200 μL cold methanol containing appropriate internal standards (IS). The plates were incubated at 37° C. for 2 h. […] An aliquot of 100 μL of the supernatant was mixed with an appropriate volume of ultra-pure water before LC-MS/MS analysis. To determine the Lucifer Yellow leakage after 2 h transport period, stock solution of Lucifer yellow was prepared in ultra-pure water and diluted with HBSS (10 mM HEPES, pH 7.4) to reach the final concentration of 100 μM and then 100 μL of the Lucifer yellow solution was added to each Transwell insert (apical compartment), followed by filling the wells in the receiver plate (basolateral compartment) with 300 μL of HBSS (10 mM HEPES, pH 7.4). The plates were incubated at 37° C. for 30 minutes. Samples (80 μL) were removed directly from the apical and basolateral wells (using the basolateral access holes) and transferred to wells of new 96 wells plates.

[1] = Maximum tolerated dose determination in NOD SCID mice; format: in vivo; conditions: QD x 5; for Body Weight %: 7 days after first dose; for Maximum tolerated dose (MTD): NOD SCID mice, IV, body weight % ≥80%
Procedure: Maximum Tolerated Dose Determinations. […]. […] Experiments involving 100 mg/kg doses of all three drugs were terminated after one day because of toxicity, while the study involving 50 mg/kg dose of G105 was also halted after one day (FIG. 12). Similarly, the investigation with a 40 mg/kg dose of G105 was discontinued after two days (FIG. 13).

[2] = format: in vivo
c-Myc [3] = experiment: Western blot of RS4;11 tumor xenograft tissue; format: in vivo, human
Description: (§1) In several cases, the levels of c-Myc were more greatly depressed at the lower dose level. For examples, see the 9-hour data for G104 in Tables 17 and 18 and the 6-hour data in Table 19. […] Overall, there are many unexpected and unexplained aspects of the data in Tables 17-19, which are highly variable and also highly dependent on cell type. In particular, drug-induced increases in c-Myc expression relative to control and the larger changes in c-Myc expression seen at lower vs. higher doses are counterintuitive and unexplained.

c-Myc [4] = experiment: Western blot of RD-ES tumor xenograft tissue; format: in vivo, human
Description: as §1

γ-H2AX = experiment: Western blot of RD-ES tumor xenograft tissue; format: in vivo, human
Description: as §1

DU-145 (Prostate) = experiment: NCI-60 cytotoxicity assay; format: cell-based, human; conditions: Homo sapiens; Prostate DU-145, 48 h; read-out: Cytotoxicity GI50
Procedure: (§2) The antiproliferative activities of the indenoisquinoline compounds are determined in the NCI-60 cancer cell lines of the National Cancer Institute Developmental Therapeutics Program (NCI-DTP). […] Cancer cells are incubated with the test compounds at five concentrations ranging from 100 μM to 10 nM for 48 h. After the treated cancer cells are stained with sulforhodamine B dye, the percentage growth is plotted as a function of the common logarithm of the tested compound concentration. […] The approximate average of GI50 values across the entire panel of NCI-60 cancer cell lines for each compound is recorded as the MGM value.
(§3) NCI-60 Cytotoxicity Assay. Compounds were submitted to the National Cancer Institute Developmental Therapeutic Program to determine their growth-inhibitory potentials in NCI-60 cell lines. All compounds satisfied the pre-screening proceeded into the 5-dose cell viability assay, in which cells were treated for 48 h at 5 dosages ranging from 100 μM to 10 nM.

HCT-116 (Colon) = experiment: NCI-60 cytotoxicity assay; format: cell-based, human; conditions: Homo sapiens; Colon HCT-116, 48 h; read-out: Cytotoxicity GI50
Procedure: as §2, §3

HOP-62 (Lung) = experiment: NCI-60 cytotoxicity assay; format: cell-based, human; conditions: Homo sapiens; Lung HOP-62, 48 h; read-out: Cytotoxicity GI50
Procedure: as §2, §3

MCF7 (Breast) = experiment: NCI-60 cytotoxicity assay; format: cell-based, human; conditions: Homo sapiens; Breast MCF7, 48 h; read-out: Cytotoxicity GI50
Procedure: as §2, §3

OVCAR-3 (Ovarian) = experiment: NCI-60 cytotoxicity assay; format: cell-based, human; conditions: Homo sapiens; Ovarian OVCAR-3, 48 h; read-out: Cytotoxicity GI50
Procedure: as §2, §3

SN12C (Renal) = experiment: NCI-60 cytotoxicity assay; format: cell-based, human; conditions: Homo sapiens; Renal SN12C, 48 h; read-out: Cytotoxicity GI50
Procedure: as §2, §3

UACC-62 (Melanoma) = experiment: NCI-60 cytotoxicity assay; format: cell-based, human; conditions: Homo sapiens; Melanoma UACC-62, 48 h; read-out: Cytotoxicity GI50
Procedure: as §2, §3

SF-539 (CNS) = experiment: NCI-60 cytotoxicity assay; format: cell-based; conditions: Homo sapiens; CNS SF-539, 48 h; read-out: Cytotoxicity GI50
Procedure: as §2, §3

NCI-60 cancer cell lines = experiment: NCI-60 cytotoxicity assay, MGM; format: cell-based; conditions: Homo sapiens; read-out: MGM (average GI50 across NCI-60 panel)
Procedure: as §2, §3

[5] = human, 6 h, 1 μM; for % Bound: plasma
Procedure: (§4) Analysis of Plasma Protein Binding and Stability in Human and Mouse Blood Plasma by Equilibrium Dialysis. Frozen plasma (stored at −80° C.) was thawed immediately in a 37° C. water bath. The working solutions of test compound and control compound were prepared in DMSO at 200 μM concentration, and the working solutions were spiked into plasma. The final concentration of compound was 1 μM. The final concentration of DMSO was 0.5%. Ketoconazole was used as positive control in the assay. The dialysis membranes were soaked in ultrapure water for 60 min to separate strips, then in 20% ethanol for 20 min, and then finally in dialysis buffer for 20 min. For equilibrium dialysis, each cell contained plasma sample (150 μL) and was dialyzed against an equal volume of dialysis buffer (PBS). The assay was performed in duplicate. The dialysis plate was sealed and incubated at 37° C. with 5% CO2 at 100 rpm for 6 h. At the end of incubation, samples (50 μL) from both buffer and plasma chambers were transferred to wells of a 96-well plate. Plasma (50 μL) was added to each buffer sample and an equal volume of PBS was added to the collected plasma sample. Cold acetonitrile (400 μL) containing internal standards (IS, 100 nM alprazolam, 200 nM labetalol, 200 nM imipramine and 2 μM ketoprofen) was added to precipitate protein and release compounds. Samples were vortexed for 2 min and centrifuged for 30 min at 3,220 g. An aliquot (100 μL) of the supernatant was diluted with ultra-pure H2O (100 μL), and the mixture was used for LC-MS/MS analysis. For stability determination in plasma, a spiked plasma sample (50 μL) was transferred to a new plate and incubated at 37° C., 5% CO2 for 0 and 6 h. At designated time points, PBS (50 μL) was added and mixed thoroughly, followed by the addition of room temperature quench solution [400 μL of acetonitrile containing internal standards (IS, 100 nM alprazolam, 200 nM labetalol, 200 nM imipramine and 2 μM ketoprofen)] to precipitate protein and release compounds. Samples were vortexed for 2 min and centrifuged for 30 min at 3,220 g. An aliquot (400 μL) of the supernatant was diluted by ultra-pure H2O, and the mixture was used for LC-MS/MS analysis. The concentrations of test compounds in the buffer and plasma chambers were determined from peak area ratios.

[6] = mouse, 6 h, 1 μM; for % Bound: plasma
Procedure: as §4

in vivo = conditions: male, CD1, mouse, iv, 20 mg/kg
Procedure: Brain Penetration Studies. […] The concentrations were determined by LC-MS/MS with direct measurement of the plasma samples. The brain tissue was homogenized with water using a 3:1 ratio of water (mL) to brain (g) before determination of the concentrations (ng/mL) in the brain homogenates, and the homogenate values then were multiplied by a factor of 4 to obtain the brain concentrations (ng/g).

Compound: CCNCCCn1c2c(c3cc(OC)c(OC)cc3c1=O)C(=O)c1cc3c(nc1-2)OCO3 [G104, 6-(3-(Ethylamino)propyl)-2,3-dimethoxy-5H-[1,3]dioxolo[4″,5″:5′,6′]pyrido [3′,2′:4,5]cyclopenta[1,2-c]isoquinoline-5,12(6H)-dione]
- Efflux Ratio (Caco-2 cells; Caco-2): 9.51
- Recovery (%)AP-BL (Caco-2 cells; Caco-2): 54.60%
- Recovery (%)BL-AP (Caco-2 cells; Caco-2): 81.64%
- Papp (A→B) (Caco-2 cells): 1.69 10^−6, cm/s
- Papp (B→A) (Caco-2 cells): 16.04 10^−6, cm/s
- Body Weight % ([1]; 5 mg/Kg IV): 92.4%
- Body Weight % ([1]; 10 mg/Kg IV): 95.2%
- Body Weight % ([1]; 15 mg/Kg IV): 87%
- Body Weight % ([1]; 20 mg/Kg IV): 83.3%
- Body Weight % ([1]; 30 mg/Kg IV): 88.8%
- Body Weight % ([1]; 40 mg/Kg IV): 78.8%
- Maximum tolerated dose (MTD) [1]: 30 mg/kg
- Mean Tumor/Plasma Ratio ([2]; MOLT-4, 3 h, IV 15 mg/kg): 51.3 ± 6.7
- Mean Tumor/Plasma Ratio ([2]; MOLT-4, 3 h, IV 30 mg/kg): 69.5 ± 8.8
- Mean Tumor/Plasma Ratio ([2]; MOLT-4, 9 h, IV 15 mg/kg): 125 ± 29
- Mean Tumor/Plasma Ratio ([2]; MOLT-4, 9 h, IV 30 mg/kg): 106 ± 21
- c-Myc/GAPDH, % Relative to Vehicle (c-Myc [3]; RS4;11, IV 15 mg/kg, 3 h): 92.20 ± 2.11%
- c-Myc/GAPDH, % Relative to Vehicle (c-Myc [3]; RS4;11, IV 15 mg/kg, 9 h): 92.59 ± 13.64%
- c-Myc/GAPDH, % Relative to Vehicle (c-Myc [3]; RS4;11, IV 30 mg/kg, 3 h): 111.60 ± 8.19%
- c-Myc/GAPDH, % Relative to Vehicle (c-Myc [3]; RS4;11, IV 30 mg/kg, 9 h): 100.31 ± 2.71%
- c-Myc/GAPDH, % Relative to Vehicle (c-Myc [4]; IV 15 mg/kg, 3 h): 128.94 ± 6.14%
- c-Myc/GAPDH, % Relative to Vehicle (c-Myc [4]; IV 15 mg/kg, 6 h): 53.57 ± 10.75%
- c-Myc/GAPDH, % Relative to Vehicle (c-Myc [4]; IV 30 mg/kg, 3 h): 188.78 ± 28.24%
- c-Myc/GAPDH, % Relative to Vehicle (c-Myc [4]; IV 30 mg/kg, 6 h): 91.67 ± 23.70%
- γ-H2AX/GAPDH, % Relative to Vehicle (γ-H2AX; IV 15 mg/kg, 3 h): 155.18 ± 11.44%
- γ-H2AX/GAPDH, % Relative to Vehicle (γ-H2AX; IV 15 mg/kg, 6 h): 101.89 ± 7.35%
- γ-H2AX/GAPDH, % Relative to Vehicle (γ-H2AX; IV 30 mg/kg, 3 h): 85.61 ± 23.26%
- γ-H2AX/GAPDH, % Relative to Vehicle (γ-H2AX; IV 30 mg/kg, 6 h): 99.26 ± 10.19%
- GI50 (DU-145 (Prostate)): 0.55 µM
- GI50 (HCT-116 (Colon)): 1.18 µM
- GI50 (HOP-62 (Lung)): 0.2 µM
- GI50 (MCF7 (Breast)): 0.075 µM
- GI50 (OVCAR-3 (Ovarian)): 11.3 µM
- GI50 (SN12C (Renal)): 4.61 µM
- GI50 (UACC-62 (Melanoma)): 1.81 µM
- GI50 (SF-539 (CNS)): 0.68 µM
- GI50 (NCI-60 cancer cell lines): 1.45 µM
- % Recovery [5]: 83.58%
- % Bound [5]: 81.21%
- % Recovery [6]: 80.60%
- % Bound [6]: 83.44%
- Cmax (in vivo): 1610 ng/g
- Vd (in vivo): 58.4 L/kg
- half-life (in vivo): 7.06 h

Compound: COc1cc2c3c(n(CCCn4ccnc4)c(=O)c2cc1OC)-c1nc2c(cc1C3=O)OCO2 [G102, 6-(3-(1H-Imidazol-1-yl)propyl)-2,3-dimethoxy-5H-[1,3]dioxolo[4″,5″:5′,6′]pyrido[3′,2′:4,5]cyclopenta[1,2-c]isoquinoline-5,12(6H)-dione]
- GI50 (DU-145 (Prostate)): 0.058 µM
- GI50 (HCT-116 (Colon)): 0.31 µM
- GI50 (HOP-62 (Lung)): 0.029 µM
- GI50 (MCF7 (Breast)): 0.026 µM
- GI50 (OVCAR-3 (Ovarian)): 33.4 µM
- GI50 (SN12C (Renal)): 0.44 µM
- GI50 (UACC-62 (Melanoma)): 0.042 µM
- GI50 (SF-539 (CNS)): 0.039 µM
- GI50 (NCI-60 cancer cell lines): 0.78 µM

Compound: COc1cc2c3c(n(CCCN4CCOCC4)c(=O)c2cc1OC)-c1nc2c(cc1C3=O)OCO2 [G101, 2,3-Dimethoxy-6-(3-morpholinopropyl)-5H-[1,3]dioxolo[4″,5″:5′,6′]pyrido[3′,2′:4,5]cyclopenta[1,2-c]isoquinoline-5,12(6H)-dione]
- GI50 (DU-145 (Prostate)): 0.42 µM
- GI50 (HCT-116 (Colon)): 0.46 µM
- GI50 (HOP-62 (Lung)): 0.051 µM
- GI50 (MCF7 (Breast)): 0.039 µM
- GI50 (OVCAR-3 (Ovarian)): 4.61 µM
- GI50 (SN12C (Renal)): 2.72 µM
- GI50 (UACC-62 (Melanoma)): 0.15 µM
- GI50 (SF-539 (CNS)): 0.23 µM
- GI50 (NCI-60 cancer cell lines): 0.93 µM

Compound: COc1cc2c3c(n(CCCNC(C)C)c(=O)c2cc1OC)-c1nc2c(cc1C3=O)OCO2 [G103, 6-(3-(Isopropylamino)propyl)-2,3-dimethoxy-5H-[1,3]dioxolo [4″,5″:5′,6′]pyrido[3′,2′:4,5]cyclopenta[1,2-c]isoquinoline-5,12(6H)-dione]
- Recovery (%)AP-BL (Caco-2 cells; Caco-2): 36.17%
- Recovery (%)BL-AP (Caco-2 cells; Caco-2): 75.54%
- Papp (A→B) (Caco-2 cells): 1.55 10^−6, cm/s
- Papp (B→A) (Caco-2 cells): 8.95 10^−6, cm/s
- Body Weight % ([1]; 5 mg/Kg IV): 92.4%
- Body Weight % ([1]; 10 mg/Kg IV): 93%
- Body Weight % ([1]; 15 mg/Kg IV): 93.9%
- Body Weight % ([1]; 20 mg/Kg IV): 86%
- Body Weight % ([1]; 30 mg/Kg IV): 85.1%
- Body Weight % ([1]; 40 mg/Kg IV): 85.3%
- Body Weight % ([1]; 50 mg/Kg IV): 86.6%
- Body Weight % ([1]; 60 mg/Kg IV): 74%
- Maximum tolerated dose (MTD) [1]: 50 mg/kg
- GI50 (DU-145 (Prostate)): 1.05 µM
- GI50 (HCT-116 (Colon)): 1.04 µM
- GI50 (HOP-62 (Lung)): 0.47 µM
- GI50 (MCF7 (Breast)): 0.1 µM
- GI50 (OVCAR-3 (Ovarian)): 14.3 µM
- GI50 (SN12C (Renal)): 10.6 µM
- GI50 (UACC-62 (Melanoma)): 9.84 µM
- GI50 (SF-539 (CNS)): 1.52 µM
- GI50 (NCI-60 cancer cell lines): 2.19 µM
- % Recovery [5]: 88.05%
- % Bound [5]: 82.60%
- % Recovery [6]: 88.02%
- % Bound [6]: 84.11%
- Cmax (in vivo): 3810 ng/g
